{"source": "patent US4031235A", "about": "“Insecticidal substituted acetate compounds” (Sumitomo Chemical Company, Limited, priority 1972, dated 1977)", "data": [{"tested_on": "oriental house flies", "test": "Activity on knock-down against oriental house flies (Experimental Example 5)", "format": "in vivo", "settings": "0.2% oil preparation, 0.7 ml, 1.5 Kg/cm^2, (70 cm)^3 glass box", "experimental": "(§1) 0.2% oil preparation was prepared from each of the compounds (1), (2), (8), (14), (22), (25), (26), (27), (51), (62), (73), (82), (86), (88), to (90), (92), (94), (96), (111), (119), (121), (165), (175), (180), (184), (185), (195), (200), (201), and (208) and allethrin as a control using deodorized kerosene.\n20 oriental house flies per group were released in a (70 cm)^3 volume glass box and sprayed with each of the oil preparations prepared in Experimental Example 4 from the compounds of Table 3 below and allethrin in an amount of 0.7 ml under a pressure of 1.5 Kg/cm^2.", "units": {"KT50 (50% knock-down time)": "s"}, "values": [{"compound": "Cc1ccc(C(C(=O)OCc2coc(Oc3ccccc3)c2)C(C)C)cc1", "note": "(stereo not drawn) [compound 195]", "KT50 (50% knock-down time)": 140}, {"compound": "C#CCc1ccc(C(C#C)OC(=O)C(c2ccc(C)cc2)C(C)C)o1", "note": "(stereo not drawn) [compound 200]", "KT50 (50% knock-down time)": 114}, {"compound": "C#CCc1ccc(C(C#C)OC(=O)C(c2ccc(Cl)cc2)C(C)C)o1", "note": "(stereo not drawn) [compound 201]", "KT50 (50% knock-down time)": 105}, {"compound": "CC(C)C(C(=O)OCc1coc(Cc2ccccc2)c1)c1ccc(F)cc1", "note": "(stereo not drawn) [compound 208]", "KT50 (50% knock-down time)": 150}]}, {"tested_on": "green rice leafhopper (Nephotettix bipuntatus cincticeps Uhler)", "test": "Killing effect on green rice leafhopper on sprayed rice plants (Experimental Example 1)", "format": "in vivo", "settings": "300-fold dilute solution, 10 ml/pot; one day after treatment; 1440 min", "experimental": "(§2) An emulsifiable concentrate was prepared by blending each of the compounds (1) to (300) of the present invention, xylol and Sorpol SM-200 (trade name; manufactured by Toho Chemical Co., Ltd.) in a proportion of 25%, 50% and 25% (by weight), respectively. 20 to 25 day-old rice plants after seeding were grown in pots and sprayed with each 300-fold dilute solution of the emulsifiable concentrates thus prepared and a 300-fold dilute solution of carbaryl 30% wettable powder diluted with water as a control commercial agent in an amount of 10 ml/pot in each case and then the pots were covered by a cylindrical metal net. 15 small brown planthoppers (Delphacodes striatella Fallen) per group were released in each of the pots treated with carbaryl wettable powder, and compound (1) to (21) and (102) to (110), while 15 green rice leafhopper (Nephotettix bipuntatus cincticeps Uhler) per group were released in each of the pots treated with the carbaryl wettable powder and compounds (22) to (101) and (111) to (300).", "values": [{"compound": "CNC(=O)Oc1cccc2ccccc12", "note": "[carbaryl]", "killing effect": "more than 90%"}]}, {"tested_on": "oriental house flies", "test": "Potentiation of insecticidal activity by addition of piperonyl butoxide, topical application (Experimental Example 6)", "format": "in vivo", "settings": "piperonyl butoxide 5 times active ingredient; acetone solution on thoracic dorsal plate", "experimental": "To each of the compounds (22), (51), (62), (63), (82), (86), (125), (150), (160), (176), (177), (178), (184), (185), (191), (195), (200), (201), (204), (208), (210), (212) and (226) was added piperonyl butoxide in an amount of 5 times that of the active ingredient, respectively to prepare an acetone solution having a given concentration. Each of the thus prepared acetone solutions was applied onto a thoracic dosal plate of oriental house flies using a microshringe to observe a synergestic effect on insecticidal activity by piperonyl butoxide.", "values": [{"compound": "C=C(C)C(C(=O)OCc1cccc(Oc2ccccc2)c1)c1ccc(C)cc1", "note": "(stereo not drawn) [compound 125, 3'-Phenoxybenzyl-α -isopropenyl-4-methylphenylacetate]", "Potentiation magnification of insecticidal activity by the addition of piperonyl butoxide": 6.0}, {"compound": "Cc1ccc(C(C(=O)OCc2cc3c(s2)CCCC3)C(C)C)cc1", "note": "(stereo not drawn) [compound 150]", "Potentiation magnification of insecticidal activity by the addition of piperonyl butoxide": 4.2}, {"compound": "CCC(C(=O)OCc1cccc(Oc2ccccc2)c1)c1ccc(C)cc1", "note": "(stereo not drawn) [compound 176]", "Potentiation magnification of insecticidal activity by the addition of piperonyl butoxide": 5.2}, {"compound": "Cc1ccc(C(C(=O)OCc2coc(Oc3ccccc3)c2)C(C)C)cc1", "note": "(stereo not drawn) [compound 195]", "Potentiation magnification of insecticidal activity by the addition of piperonyl butoxide": 5.7}, {"compound": "C#CCc1ccc(C(C#C)OC(=O)C(c2ccc(C)cc2)C(C)C)o1", "note": "(stereo not drawn) [compound 200]", "Potentiation magnification of insecticidal activity by the addition of piperonyl butoxide": 7.5}, {"compound": "C#CCc1ccc(C(C#C)OC(=O)C(c2ccc(Cl)cc2)C(C)C)o1", "note": "(stereo not drawn) [compound 201]", "Potentiation magnification of insecticidal activity by the addition of piperonyl butoxide": 7.0}, {"compound": "CC(C)C(C(=O)OCc1cccc(Oc2ccccc2)c1)c1ccc(Cl)cc1", "note": "(stereo not drawn) [compound 206]", "Potentiation magnification of insecticidal activity by the addition of piperonyl butoxide": 5.1}, {"compound": "CC(C)C(C(=O)OCc1coc(Cc2ccccc2)c1)c1ccc(F)cc1", "note": "(stereo not drawn) [compound 208]", "Potentiation magnification of insecticidal activity by the addition of piperonyl butoxide": 5.2}]}, {"tested_on": "Larvae of Mosquito (Culex pipiens)", "test": "Insecticidal activity on larvae of mosquito (Experimental Example 2)", "format": "in vivo", "settings": "24 h, read-out: LC50 (50% lethal concentration)", "experimental": "as §2\nOf the emulsifiable concentrates prepared in Experimental Example 1, each of those prepared from the compounds of Table 1 below was diluted with water to each of test concentrations and a 200 ml portion thereof was added to a 300 ml volume beaker. 30 larvae of mosquito per group were released in each of the beaker and allowed to stand for 1 day. Survival was observed and a LC50 (50% lethal concentration) was determined by calculating a percent killing in each case. As a control, lindane emulsifiable concentrate was used.", "units": {"LC50": "ng/mL"}, "values": [{"compound": "CCC(C(=O)OCc1cccc(Oc2ccccc2)c1)c1ccccc1", "note": "(stereo not drawn) [compound 2, 3'-Phenoxybenzyl-α-ethylphenylacetate]", "LC50": 3.4}, {"compound": "C=C(C)C(C(=O)OCc1cccc(Oc2ccccc2)c1)c1ccc(C)cc1", "note": "(stereo not drawn) [compound 125, 3'-Phenoxybenzyl-α -isopropenyl-4-methylphenylacetate]", "LC50": 3.2}, {"compound": "Cc1ccc(C(C(=O)OCc2ccc(Cc3ccco3)s2)C(C)C)cc1", "note": "(stereo not drawn) [compound 145]", "LC50": 3.9}, {"compound": "CC(C)C(C(=O)OCc1cccc(Oc2ccccc2)c1)c1ccc(Cl)cc1", "note": "(stereo not drawn) [compound 206]", "LC50": 3.2}]}, {"tested_on": "not listed separately", "test": "Oral toxicity to mice", "settings": "mouse, in vivo", "units": {"LD50": "mg/kg"}, "values": [{"compound": "CCC(C(=O)OCc1cccc(Oc2ccccc2)c1)c1ccccc1", "note": "(stereo not drawn) [compound 2, 3'-Phenoxybenzyl-α-ethylphenylacetate]", "LD50": "> 1000"}, {"compound": "CCC(C(=O)OCc1cccc(Oc2ccccc2)c1)c1ccc(OC)cc1", "note": "(stereo not drawn) [compound 80, 3'-Phenoxybenzyl-α-ethyl-4-methoxyphenylacetate]", "LD50": "> 2000"}, {"compound": "Cc1ccc(C(C(=O)OCc2cccc(Oc3ccccc3)c2)C(C)C)cc1", "note": "(stereo not drawn) [compound 108, 3'-Phenoxybenzyl-α-isopropyl-4-methylphenylacetate]", "LD50": "> 1000"}, {"compound": "C=C(C)C(C(=O)OCc1cccc(Oc2ccccc2)c1)c1ccc(C)cc1", "note": "(stereo not drawn) [compound 125, 3'-Phenoxybenzyl-α -isopropenyl-4-methylphenylacetate]", "LD50": 1000}, {"compound": "C#CCc1cc(C)c(COC(=O)C(c2ccc(Cl)cc2)C(C)C)c(C)c1", "note": "(stereo not drawn) [compound 129]", "LD50": "> 1000"}, {"compound": "CC(C)C(C(=O)OCN1C(=O)c2ccccc2C1=O)c1ccc(Cl)cc1", "note": "(stereo not drawn) [compound 130]", "LD50": "> 1000"}, {"compound": "Cc1ccc(C(C(=O)OCc2ccc(Cc3ccco3)s2)C(C)C)cc1", "note": "(stereo not drawn) [compound 145]", "LD50": "> 1000"}, {"compound": "Cc1ccc(C(C(=O)OCc2cc3c(s2)CCCC3)C(C)C)cc1", "note": "(stereo not drawn) [compound 150]", "LD50": "> 1000"}, {"compound": "CCC(C(=O)OCc1cccc(Oc2ccccc2)c1)c1ccc(C)cc1", "note": "(stereo not drawn) [compound 176]", "LD50": "> 1000"}, {"compound": "CC(C)C(C(=O)OCc1cccc(Oc2ccccc2)c1)c1ccc(Cl)cc1", "note": "(stereo not drawn) [compound 206]", "LD50": "> 1000"}]}, {"tested_on": "adult mosquitoes (Culex pipiens)", "test": "Knock-down of adult mosquitoes by 0.2% oil preparation (Experimental Example 4)", "format": "in vivo", "settings": "0.2% oil preparation, 0.7 ml, 1.5 Kg/cm^2, (70 Cm)^3 glass box, read-out: mosquitoes knocked down", "experimental": "as §1", "units": {"pest or weed control at 0.2 %": "%"}, "values": [{"compound": "CCC(C(=O)OCc1cccc(Oc2ccccc2)c1)c1ccccc1", "note": "(stereo not drawn) [compound 2, 3'-Phenoxybenzyl-α-ethylphenylacetate]", "pest or weed control at 0.2 %": "> 80"}, {"compound": "Cc1ccc(C(C(=O)OCc2coc(Oc3ccccc3)c2)C(C)C)cc1", "note": "(stereo not drawn) [compound 195]", "pest or weed control at 0.2 %": "> 80"}, {"compound": "C#CCc1ccc(C(C#C)OC(=O)C(c2ccc(C)cc2)C(C)C)o1", "note": "(stereo not drawn) [compound 200]", "pest or weed control at 0.2 %": "> 80"}, {"compound": "C#CCc1ccc(C(C#C)OC(=O)C(c2ccc(Cl)cc2)C(C)C)o1", "note": "(stereo not drawn) [compound 201]", "pest or weed control at 0.2 %": "> 80"}, {"compound": "CC(C)C(C(=O)OCc1coc(Cc2ccccc2)c1)c1ccc(F)cc1", "note": "(stereo not drawn) [compound 208]", "pest or weed control at 0.2 %": "> 80"}]}, {"tested_on": "small brown planthoppers (Delphacodes striatella Fallen)", "test": "Killing effect on small brown planthoppers on sprayed rice plants (Experimental Example 1)", "format": "in vivo", "settings": "300-fold dilute solution, 10 ml/pot; one day after treatment; 1440 min", "experimental": "as §2", "values": [{"compound": "CNC(=O)Oc1cccc2ccccc12", "note": "[carbaryl]", "killing effect": "more than 90%"}]}]}
